Measurements as given in PubChem BioAssay AID652252 (Sanford-Burnham Center for Chemical Genomics, 2013).
Activity calls are given as the source filed them. No rule for the calls is given here.

These compounds were tested on HT1080 cells viability, ATPLite luminescence, overnight (assay: viability of HT1080 fibrosarcoma cells – cell-based, ATPLite luminescence, set 1, cytotoxicity control for MT1-MMP activation inhibitor project, dose response (AID 652252)).

SMILES	IC50
CN1C(=O)/C(=C2/C=Cc3ccccc3N2CCCS(=O)(=O)O)SC1=S	> 80 µM (inactive)
Nc1ccc(NC(=O)c2ccccc2)c2c1C(=O)c1ccccc1C2=O	> 80 µM (inactive)
Nc1nc(-c2ccccc2)c(N=Nc2cccc3ccccc23)s1	> 80 µM (inactive)
CCN(CC)c1ccc(C(=C2C=CC(=[N+](CC)CC)C=C2)c2ccc(N(CC)CC)cc2)cc1	> 80 µM (inactive)
Cc1ccccc1C1=C/C(=C(\SS/C(C(=O)c2ccc(OCC(=O)O)c(Cl)c2Cl)=C2\C=C(c3ccccc3C)SS2)C(=O)c2ccc(OCC(=O)O)c(Cl)c2Cl)SS1	51.8 µM (inactive)
CNc1ccccc1C(C)(C)c1cc(-c2cccc(OC)c2)no1	> 80 µM (inactive)
CNc1ccc2nc3ccccc3[n+](C)c2c1	11.4 µM
Cc1c(C(=O)OCC(=O)NCC2CCCO2)oc2ccccc12 (configuration not stated)	> 40 µM (inactive)
COc1ccc(-c2oc3ccc(-c4ccc(OC)nc4)cc3c2C#CC2(O)CCCCC2)cc1	> 80 µM (inactive)
COc1ccccc1C(=O)NC(=S)/C=C1/N(C)c2ccccc2C1(C)C	> 80 µM (inactive)
CNc1ccccc1C(C)(C)c1cc(-c2cccc(Br)c2)no1	> 80 µM (inactive)
O=Nc1c(-c2c(O)[nH]c3cc(Br)ccc23)[nH]c2ccccc12	66.1 µM (inactive)
CC1=NN(c2ccccc2)C(=O)C1N=Nc1ccc(N)cc1 (configuration not stated)	> 80 µM (inactive)
C/C(=C/c1oc2ccc(O)cc2c1[N+](=O)[O-])N(C)C	> 80 µM (inactive)
O=S(=O)(O)c1cc(Cl)cc(N=Nc2ccc(O)cc2O)c1O	1.42 µM
N#CC(C#N)=NNc1ccc([N+](=O)[O-])cc1	> 80 µM (inactive)
CC(=O)Oc1ccc2oc(/C=C/N(C)C)c([N+](=O)[O-])c2c1	> 80 µM (inactive)
CC1CC(C)CN(C(=O)c2ccc3c(c2NCCO)C(=O)c2ccccc2C3=O)C1 (configuration not stated)	> 80 µM (inactive)
CCCN1C(=O)/C(=C2/C=Cc3ccccc3N2CC)SC1=S	64.9 µM (inactive)
COc1cc(N(C)C)ccc1C=c1c2ccccc2n2c1cc(-c1ccccc1)[n+]2C	1.43 µM
CC1=NN(c2ccccc2)C(=O)/C1=C/C=C/c1ccc(N(C)C)cc1	> 80 µM (inactive)
O=C1c2cccc(NCCCNCCO)c2C(=O)c2cccc(NCCCNCCO)c21	> 80 µM (inactive)
CCN(CC)c1ccc(/C=C2\C(=O)N(c3nnc(C)c(=O)[nH]3)N=C2C)cc1	> 80 µM (inactive)
CN=C1C=C/C(=N/N=c2\ccn(O)cc2C)C=C1C	> 80 µM (inactive)

SMILES	IC50
Nc1nc(-c2ccc(Cl)cc2)c(N=Nc2ccc(S(=O)(=O)N3CCOCC3)cc2)s1	30.3 µM (inactive)
CC[n+]1c(/C=C/N(C)c2ccccc2)sc2ccc(Cl)cc21	> 80 µM (inactive)
O=C(NNc1c2ccccc2nc2ccccc12)c1cc2ccccc2cc1O	> 80 µM (inactive)
CCOc1ccc2nc(N=Nc3c(O)[nH]c(=S)[nH]c3=O)sc2c1	38.1 µM (inactive)
Cc1cc(N(CCO)CCO)ccc1N=Nc1cc(F)ccc1F	> 80 µM (inactive)
CN(C)c1ccc(C=c2c3ccccc3n3c2c2c([n+]3C)CCCC2)cc1	> 80 µM (inactive)
Cc1cccc[n+]1CC(=O)/C=C1\N(C)c2ccccc2C1(C)C	70.6 µM (inactive)
CCn1c(=O)c(=O)[nH]c2cc(C(=O)NC3CCCc4ccccc43)ccc21 (configuration not stated)	> 80 µM (inactive)
COc1ccc(Nc2ccccc2N)cc1	2.38 µM
CC1=C/C(=C(/c2cc(C)c(O)c(Br)c2)c2ccccc2S(=O)(=O)O)C=C(Br)C1=O	> 80 µM (inactive)
CCCN1/C(=C2/SC(=S)N(CC)C2=O)C=Cc2ccccc21	> 80 µM (inactive)
CN1C(=O)/C(=C\c2cc(N=Nc3ccccc3)ccc2O)SC1=S	> 80 µM (inactive)
O=C1c2ccccc2C(=O)c2c(O)c(O)cc(O)c21	> 80 µM (inactive)
CNc1c(C(=O)O)ccc2c1C(=O)c1ccccc1C2=O	> 80 µM (inactive)
CC1=NN(c2ccccc2)C(=O)/C1=C/C=C/C=C/N(C)C	10.2 µM
CC1(C)CCCN(C(=O)c2ccc3c(c2NCCO)C(=O)c2ccccc2C3=O)C1	> 80 µM (inactive)
C[N+]1=C(/C=C/Nc2ccccc2)C(C)(C)c2ccccc21	16.9 µM
COc1ccc(C)cc1Nc1nc(-c2c(C)[nH]c3ccccc23)cs1	> 80 µM (inactive)
O=C(NNc1c2ccccc2nc2ccccc12)c1ccc(Cl)cc1	> 40 µM (inactive)
COc1ccc(C)cc1N=Nc1ccc(O)c2ncccc12	> 80 µM (inactive)
Cc1ccc(S(=O)(=O)/N=C2\C=C(NS(=O)(=O)c3ccccc3)C(=O)c3ccccc32)c(C)c1	> 80 µM (inactive)
CN1C2=CC=CC=CC2=[N+](C)C12C=CC(=[N+]([O-])[O-])C=C2[N+](=O)[O-] (configuration not stated)	> 80 µM (inactive)
CCOC(=O)C1=C(C)N=c2s/c(=C\c3ccc(OC(C)=O)c(OCC)c3)c(=O)n2C1/C=C/c1ccccc1 (configuration not stated)	3.54 µM
